# Tests used:
# [1] = molecular target: T1, wt human TYK2, catalytic site (Homo sapiens, UniProt P29597); experiment: HTRF KinEASE assay, TYK2; assay type: biochemical; settings: 1 μM ATP; read-out: IC50, Activity Toward TYK2
# T1 construct: wt human TYK2, catalytic site; purchased SignalChem
# T1 sequence (P29597 897-1176 limits assumed): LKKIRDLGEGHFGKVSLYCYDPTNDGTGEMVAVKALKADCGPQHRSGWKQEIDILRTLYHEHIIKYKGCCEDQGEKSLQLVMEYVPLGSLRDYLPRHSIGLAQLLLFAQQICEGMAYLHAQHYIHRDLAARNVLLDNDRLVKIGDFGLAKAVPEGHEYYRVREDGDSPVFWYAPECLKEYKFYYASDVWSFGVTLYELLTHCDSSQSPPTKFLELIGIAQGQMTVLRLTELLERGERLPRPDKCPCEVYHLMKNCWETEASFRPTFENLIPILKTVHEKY
# In short: (§1)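 Kinase reaction run at room temperature for at least 30 min: 2 nM TYK2 with 1 μM ATP, or 1 nM JAK2 with 100 μM ATP, each with 1 μM biotin-TK substrate. Phosphorylation detected by HTRF (60 min antibody/XL665) and evaluated from emission ratios.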
# [2] = molecular target: T2, wt human JAK1, catalytic site (Homo sapiens, UniProt P23458); experiment: HTRF KinEASE assay, JAK1; assay type: biochemical; settings: 2.5 μM ATP; read-out: IC50, Activity Toward JAK1
# T2 construct: wt human JAK1, catalytic site; purchased ThermoFisher
# In short: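 Compounds in DMSO dilution were mixed with kinase, biotin-TK substrate and ATP and reacted for ≥30 min at room temperature. Detection reagents (antibody, streptavidin-XL665) were read 60 min later as HTRF, with emission ratios analysed per KinEASE protocol.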
# [3] = molecular target: T3, wt human LRRK2, catalytic site (Homo sapiens, UniProt Q5S007); experiment: TR-FRET LanthaScreen Eu Kinase Binding Assay, LRRK2 wt; settings: one range stated for wt and G2019, read-out: IC50, Activity Toward LRRK2(Wt)
# T3 construct: 5 nM wt human LRRK2, catalytic site; purchased ThermoFisher
# In short: (§2)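 NUAK1: 8 nM enzyme, 2 nM Eu-anti-His antibody, 5 nM Tracer 236. LRRK2 wt/G2019S: 5 nM enzyme, 2 nM Eu-anti-GST antibody, 10 nM Tracer 236. Kinase Buffer A, 1 h RT, TR-FRET ratio.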
# [4] = molecular target: T4, wt human JAK2, catalytic site (Homo sapiens, UniProt O60674); experiment: HTRF KinEASE assay, JAK2; assay type: biochemical; settings: assay format not given (Z'-LYTE or HTRF KinEASE); read-out: IC50, Activity Toward JAK2
# T4 construct: wt human JAK2, catalytic site; purchased SignalChem
# In short: as §1
# [5] = molecular target: T5, G2019S human LRRK2, catalytic site (Homo sapiens, UniProt Q5S007, G2019S); experiment: TR-FRET LanthaScreen Eu Kinase Binding Assay, LRRK2 G2019S; settings: LRRK2(G2019); one range stated for wt and G2019; read-out: IC50, Activity Toward LRRK2(G2019)
# T5 construct: G2019S human LRRK2, catalytic site; purchased ThermoFisher
# In short: as §2
# [6] = molecular target: T6, wt human NUAK1, full length (Homo sapiens, UniProt O60285); experiment: TR-FRET LanthaScreen Eu Kinase Binding Assay, NUAK1; settings: read-out: IC50, Activity Toward NUAK1
# T6 construct: 8 nM wt human NUAK1, full length (ThermoFisher/USA); purchased ThermoFisher
# T6 sequence (O60285 1-661): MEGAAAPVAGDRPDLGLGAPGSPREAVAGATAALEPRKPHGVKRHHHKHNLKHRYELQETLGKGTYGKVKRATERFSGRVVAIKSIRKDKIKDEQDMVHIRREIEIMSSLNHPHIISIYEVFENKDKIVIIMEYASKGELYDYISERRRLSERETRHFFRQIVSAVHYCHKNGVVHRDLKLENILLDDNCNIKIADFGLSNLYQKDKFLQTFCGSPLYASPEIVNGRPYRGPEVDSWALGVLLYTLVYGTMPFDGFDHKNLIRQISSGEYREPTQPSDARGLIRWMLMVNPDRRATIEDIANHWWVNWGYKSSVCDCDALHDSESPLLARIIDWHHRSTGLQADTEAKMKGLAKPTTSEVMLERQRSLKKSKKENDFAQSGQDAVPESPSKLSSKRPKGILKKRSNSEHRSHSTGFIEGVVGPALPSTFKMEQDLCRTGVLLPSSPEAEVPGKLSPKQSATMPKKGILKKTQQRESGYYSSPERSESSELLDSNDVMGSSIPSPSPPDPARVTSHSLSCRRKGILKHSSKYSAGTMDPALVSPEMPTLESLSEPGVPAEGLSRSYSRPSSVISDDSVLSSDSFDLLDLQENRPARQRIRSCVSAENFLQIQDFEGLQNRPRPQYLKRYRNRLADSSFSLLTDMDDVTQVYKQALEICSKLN
# In short: as §2
# T4 sequence (O60674 849-1124 limits assumed): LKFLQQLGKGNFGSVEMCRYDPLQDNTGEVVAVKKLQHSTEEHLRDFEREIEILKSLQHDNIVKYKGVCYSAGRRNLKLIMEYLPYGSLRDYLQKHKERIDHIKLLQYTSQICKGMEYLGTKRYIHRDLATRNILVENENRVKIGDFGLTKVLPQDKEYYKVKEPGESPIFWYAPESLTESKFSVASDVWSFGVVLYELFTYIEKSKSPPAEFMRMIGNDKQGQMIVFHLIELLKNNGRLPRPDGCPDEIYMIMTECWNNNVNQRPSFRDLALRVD
# T3 sequence (Q5S007 970-2527 limits assumed): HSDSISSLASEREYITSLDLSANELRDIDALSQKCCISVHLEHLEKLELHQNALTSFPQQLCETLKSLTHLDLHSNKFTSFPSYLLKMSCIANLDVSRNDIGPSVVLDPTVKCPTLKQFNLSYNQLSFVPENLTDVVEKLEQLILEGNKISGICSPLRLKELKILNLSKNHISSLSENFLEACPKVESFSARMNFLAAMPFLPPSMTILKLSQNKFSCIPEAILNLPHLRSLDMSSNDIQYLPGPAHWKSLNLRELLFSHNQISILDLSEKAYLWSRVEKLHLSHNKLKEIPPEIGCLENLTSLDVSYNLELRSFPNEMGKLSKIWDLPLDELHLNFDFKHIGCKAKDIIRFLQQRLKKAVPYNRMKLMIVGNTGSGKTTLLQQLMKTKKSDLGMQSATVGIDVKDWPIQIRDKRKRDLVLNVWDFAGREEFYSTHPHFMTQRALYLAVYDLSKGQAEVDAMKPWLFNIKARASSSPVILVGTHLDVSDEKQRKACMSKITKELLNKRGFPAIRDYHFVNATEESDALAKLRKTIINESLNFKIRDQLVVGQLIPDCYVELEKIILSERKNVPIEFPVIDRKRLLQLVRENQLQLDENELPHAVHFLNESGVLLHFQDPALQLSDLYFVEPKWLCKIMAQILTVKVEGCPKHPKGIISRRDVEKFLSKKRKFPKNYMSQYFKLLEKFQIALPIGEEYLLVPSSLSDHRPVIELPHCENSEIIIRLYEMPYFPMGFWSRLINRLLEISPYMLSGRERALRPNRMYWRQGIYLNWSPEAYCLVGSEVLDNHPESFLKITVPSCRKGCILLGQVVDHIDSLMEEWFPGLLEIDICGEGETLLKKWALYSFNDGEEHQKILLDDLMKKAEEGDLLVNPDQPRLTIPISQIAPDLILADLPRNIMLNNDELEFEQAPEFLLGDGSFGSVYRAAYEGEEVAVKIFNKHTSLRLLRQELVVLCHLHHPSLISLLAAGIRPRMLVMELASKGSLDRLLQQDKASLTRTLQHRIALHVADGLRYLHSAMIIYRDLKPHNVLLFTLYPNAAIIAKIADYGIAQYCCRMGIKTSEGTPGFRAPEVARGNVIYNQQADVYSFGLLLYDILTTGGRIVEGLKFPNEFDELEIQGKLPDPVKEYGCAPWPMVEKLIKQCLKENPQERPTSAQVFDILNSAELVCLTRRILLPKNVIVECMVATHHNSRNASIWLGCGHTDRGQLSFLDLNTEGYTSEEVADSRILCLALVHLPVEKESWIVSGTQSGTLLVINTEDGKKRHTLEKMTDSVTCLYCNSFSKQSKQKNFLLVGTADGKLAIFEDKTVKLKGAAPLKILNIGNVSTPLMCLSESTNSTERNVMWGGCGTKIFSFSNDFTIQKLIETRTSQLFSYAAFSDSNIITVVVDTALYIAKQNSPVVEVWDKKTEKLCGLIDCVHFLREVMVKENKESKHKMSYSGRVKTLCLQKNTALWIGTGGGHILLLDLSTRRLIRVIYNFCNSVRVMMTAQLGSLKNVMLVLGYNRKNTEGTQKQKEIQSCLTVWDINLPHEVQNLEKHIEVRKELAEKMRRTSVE
# T5 sequence (Q5S007 970-2527 G2019S limits assumed): as the sequence (Q5S007 970-2527 limits assumed) above, with G1050S counted along it
# T2 sequence (P23458 875-1153 limits assumed): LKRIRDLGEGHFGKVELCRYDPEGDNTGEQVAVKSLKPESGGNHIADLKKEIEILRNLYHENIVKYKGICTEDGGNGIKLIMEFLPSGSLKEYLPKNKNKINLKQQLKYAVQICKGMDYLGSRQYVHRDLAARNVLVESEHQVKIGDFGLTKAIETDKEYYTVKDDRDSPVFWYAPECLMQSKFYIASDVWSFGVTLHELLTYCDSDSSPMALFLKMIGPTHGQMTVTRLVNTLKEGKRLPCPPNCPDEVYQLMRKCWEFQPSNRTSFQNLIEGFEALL
Compound,IC50 [1] [nM],IC50 [2] [nM],IC50 [3] [nM],IC50 [4] [nM],IC50 [5] [nM],IC50 [6] [nM]
"CC(C)n1ncnc1-c1ccc(Nc2cn(-c3c(F)cccc3Cl)nc2C(N)=O)cc1 [compound 211, 1-(2-chloro-6-fluorophenyl)-4-((4-(1-isopropyl-1H-1,2,4-triazol-5-yl)phenyl)amino)-1H-pyrazole-3-carboxamide]",10 to 100,100 to 1000,10 to 100,100 to 1000,10 to 100,100 to 1000
"NC(=O)c1nn(-c2c(Cl)cccc2Cl)cc1Nc1ccc(-c2nncn2CC(F)F)cc1 [compound 212, 1-(2,6-dichlorophenyl)-4-((4-(4-(2,2-difluoroethyl)-4H-1,2,4-triazol-3-yl)phenyl)amino)-1H-pyrazole-3-carboxamide]",< 10,10 to 100,100 to 1000,100 to 1000,100 to 1000,100 to 1000
"CCn1ccnc1-c1ccc(Nc2cn(-c3c(Cl)cccc3Cl)nc2C(N)=O)cc1 [compound 229, 1-(2,6-dichlorophenyl)-4-((4-(1-ethyl-1H-imidazol-2-yl)phenyl)amino)-1H-pyrazole-3-carboxamide]",10 to 100,< 10,100 to 1000,100 to 1000,100 to 1000,100 to 1000
"NC(=O)c1nn(-c2c(Cl)cccc2Cl)cc1Nc1ccc(-c2nnc3ccccn23)cc1 [compound 333, 4-((4-([1,2,4]triazolo[4,3-a]pyridin-3-yl)phenyl)amino)-1-(2,6-dichlorophenyl)-1H-pyrazole-3-carboxamide]",< 10,10 to 100,100 to 1000,100 to 1000,100 to 1000,100 to 1000
"N#Cc1cccc(F)c1-n1cc(Nc2ccc(C(=O)N3CCS(=O)(=O)CC3)cc2)c(C(N)=O)n1 [compound 452, 1-(2-cyano-6-fluorophenyl)-4-((4-(1,1-dioxidothiomorpholine-4-carbonyl)phenyl)amino)-1H-pyrazole-3-carboxamide]",< 10,< 10,100 to 1000,100 to 1000,100 to 1000,100 to 1000

# Results, then the molecule that gave them:
IC50 [1] [nM],IC50 [2] [nM],IC50 [3] [nM],IC50 [4] [nM],IC50 [5] [nM],IC50 [6] [nM],Compound
< 10,10 to 100,100 to 1000,100 to 1000,100 to 1000,10 to 100,"NC(=O)c1nn(-c2c(F)cccc2Cl)cc1Nc1ccc(C(=O)N2CCCC2)cc1 [compound 227, 1-(2-chloro-6-fluorophenyl)-4-((4-(pyrrolidine-1-carbonyl)phenyl)amino)-1H-pyrazole-3-carboxamide]"
< 10,10 to 100,100 to 1000,100 to 1000,100 to 1000,100 to 1000,"NC(=O)c1nn(-c2c(Cl)ccc(F)c2Cl)cc1Nc1ccc(C(=O)N2CCOCC2)cc1 [compound 416, 1-(2,6-dichloro-3-fluorophenyl)-4-((4-(morpholine-4-carbonyl)phenyl)amino)-1H-pyrazole-3-carboxamide]"
< 10,10 to 100,100 to 1000,100 to 1000,100 to 1000,100 to 1000,"N#Cc1cccc(F)c1-n1cc(Nc2ccc(C(=O)N3CCOCC3)cc2)c(C(N)=O)n1 [compound 454, 1-(2-cyano-6-fluorophenyl)-4-((4-(morpholine-4-carbonyl)phenyl)amino)-1H-pyrazole-3-carboxamide]"

# Reference: patent US20230373985A1 (Origenis Gmbh, priority 2020, published 2023)
